These results are taken from patent US20220251092A1, “CASEIN KINASE 1EPSILON INHIBITOR, PHARMACEUTICAL COMPOSITION AND APPLICATION THEREOF” (HANGZHOU HEALZEN THERAPEUTICS CO., LTD., priority 2019, published 2022).

Each structure is given as a SMILES string.

The test system of data set [1] is Karpas299 cells. The data set is described as follows: In-vitro anti-tumor activity, Karpas299 cells, CellTiter-Glo. The data set is classed as cell-based. To be noted: Homo sapiens, KARPAS-299, Karpas299, 72h. As for the experimental part: In-vitro anti-tumor activities of the synthesized compounds were determined using Human Non-Hodgkin's Ki-positive Large Cell Lymphoma (Karpas299) cell strain:
Drug preparation method: The drugs were dissolved in DMSO to make stock solutions of 10 mM and diluted in a certain ratio to obtain 7 different concentrations (test concentration: 100×).
In vitro culture of tumor cells: The selected Karpas299 cells were incubated in a 500 CO2 cell culture incubator at 37° C. using RPMI-1640^+ fetal bovine serum medium. Four thousand cells/100 μl/well were seeded in a 96-well plate and incubated overnight in a 500 CO2 cell incubator at 37° C. Five μl of the compounds were dispensed in each well at final concentrations of 10 μM, 2.5 μM, 0.625 μM, 0.15625 μM, 0.039063 μM, 0.0097656 μM and 0.0024414 μM, and incubation was performed together for 72h in a 5% CO2 cell incubator at 37° C. with DMSO (0.10%) as controls. After 72h, the CellTiter-Glo buffer and reaction substrate were taken out of the fridge and equilibrated to room temperature. The buffer was then poured into a brown bottle containing the substrate. The bottle was turned up and down so that the substrate powder was fully dissolved. […] A white sealing film was attached to the bottom of the well plate, and the chemiluminescence signal of each well was detected with an Enspire microplate reader. […]
Background: Cellular ATP, detected with luciferase, serves as a proxy for viable cell number.

Data set [2] concerns OCI-LY10 cells. Description: In-vitro anti-tumor activity, OCI-LY10 cells, CCK-8. The following applies: Homo sapiens; OCI-LY10, 72h, CCK-8; read-out: IC50. The data set is classed as cell-based, human. As to the method: The in-vitro anti-tumor activities of the synthesized compounds were determined using a diffuse large B-cell lymphoma (OCI-LY10) cell strain:
Drug preparation method: The drug was dissolved in DMSO to make a stock solution of 10 mM and diluted in a certain ratio to obtain 7 different concentrations (test concentration: 100×).
In vitro culture of tumor cells: The selected OCI-LY10 cells were incubated with a medium of IMDM+fetal bovine serum in a 5% CO2 cell culture incubator at 37° C., and were passaged when the cell density grew to 70-90% (adherent cells were passaged after digestion with Duck's EDTA) for later experiments as needed. Four thousand cells/200 μl/well were seeded in a 96-well plate and incubated overnight in a 5% CO2 cell incubator at 37° C. Two μl of the compounds were dispensed in each well at final concentrations of […], and incubation was performed together for 72h in a 5% CO2 cell incubator at 37° C. with DMSO (2%) as control. After 72h, 20 μl of CCK-8 solution was added and the plate was placed in a 5% CO2 cell culture incubator at 37° C. for 4h. Wells with the corresponding amounts of cell culture medium and CCK-8 solution but without cells were used as blank controls. The absorbance (OD values) was measured at 450 nm using an enzyme marker, and the obtained data were used to calculate the IC50.

In data set [3] the target is CK1ε (Homo sapiens, UniProt P49674). Description: CK1ε kinase activity assay (Caliper, FAM-labelled polypeptide). The data set is classed as biochemical. As for the experimental part:
The in-vitro assay of inhibitory activity of the compound herein against CK1ε kinase was:
(1) preparation of 1× kinase basic buffer and stop buffer: • 1×kinase basic buffer: 50 mM HEPES, pH 7.5; and 0.0015% Brij-35; • stop buffer: 100 mM HEPES, pH 7.5; 0.015% Brij-35; 0.2% Coating Reagent #3; and 50 mM EDTA.
(2) preparation of the test compound: • a 50× (“n×” represents dilution factor, same hereafter) stock solution of the compound with DMSO (10 mM, DMSO) to obtain stock solution I for use; […] of stock solution I was placed in a 96-well plate, each compound sample was diluted by 5-fold serial dilution till 10 concentrations was obtained while ensuring 10 μl of drug solution in each well; meanwhile, 100 μl of DMSO was used as a blank control group and a negative control group without enzyme substrate; • a separate 96-well plate was prepared, and to 10 μl of the above compound,
90 μl of 1× kinase foundation buffer was added, mixed well for 10 min to obtain a mixture.

The test system of data set [4] is OCI-LY10 xenograft tumor. Description: In vivo pharmacodynamic study, OCI-LY10 subcutaneous xenograft in SCID mice. On the set-up: species or system SCID mouse. To be noted: Table 5; 50 mg/kg PO QD Day 0-38; combinations with 17a 6 mg/kg PO QD. As to the method:
OCI-LY10 cells were cultured in an IMDM medium containing 20% FBS and maintained in a 5% CO2 incubator at 37° C. with saturated humidity. OCI-LY10 cells of logarithmic phase were collected and resuspended in an IMDM basic medium containing 50% Matrigel, and the cell concentration was adjusted to 5×10^7/ml. Subcutaneous inoculation of 0.1 ml of the cell suspension was performed aseptically in the right dorsum of mice at a concentration of 5×10^6/0.1 ml/mouse. Once the tumor volume reached about 150 mm^3, the animals were randomly grouped according to tumor volume so that the difference in tumor volume between the groups was less than 10% of the mean value. The date of grouping was recorded as Day 0, and drug administration was started based on the body weight of the animals. During drug administration, body weight of certain animals decreased by more than 15% compared to Day 0 (BWL≥15%), drug administration was discontinued for these animals until their body weight recovered (BWL<15%). The body weight and tumor volume of the animals were measured twice a week during the experiment, and clinical signs were observed and recorded daily.
The efficacy in terms of tumor volume was evaluated by the relative tumor proliferation rate T/C ratio, and T/C (%) was calculated as TRTV/CRTV[…], where TRTV is the relative tumor volume (RTV) of the treatment group and CRTV is the RTV of the negative control group. The RTV was calculated as Vt/V0, where V0 is the tumor volume at the time of grouping and Vt is the tumor volume at each measurement. The drug is considered effective with T/CP≤40% according to NMPA guidelines.
The efficacy in terms of tumor weight was evaluated by TGI (tumor weight inhibition) values, TGI 0%=(TWC−TWT)/TWC×[…], where TWC is tumor weight of control group, and TWT is tumor weight of treatment group. The drug is considered effective with TGI≥58% according to NIH guidelines.

Data set [5] can be described thus: Bioavailability study in rats. To be noted: Sprague-Dawley, plasma, rat. Format: in vivo, SD rats. As for the experimental part: SD rats were used as the experimental animals, to which drugs of 10 mg/kg were administered by gavage and 1 mg/kg by tail intravenous injection. […] Whole blood (0.3 ml) was collected, 0.1 ml of plasma was separated by centrifugation at 2000 g for 10 min, and the samples were analyzed by LC-MS/MS.

Sequence of CK1ε (P49674 whole entry): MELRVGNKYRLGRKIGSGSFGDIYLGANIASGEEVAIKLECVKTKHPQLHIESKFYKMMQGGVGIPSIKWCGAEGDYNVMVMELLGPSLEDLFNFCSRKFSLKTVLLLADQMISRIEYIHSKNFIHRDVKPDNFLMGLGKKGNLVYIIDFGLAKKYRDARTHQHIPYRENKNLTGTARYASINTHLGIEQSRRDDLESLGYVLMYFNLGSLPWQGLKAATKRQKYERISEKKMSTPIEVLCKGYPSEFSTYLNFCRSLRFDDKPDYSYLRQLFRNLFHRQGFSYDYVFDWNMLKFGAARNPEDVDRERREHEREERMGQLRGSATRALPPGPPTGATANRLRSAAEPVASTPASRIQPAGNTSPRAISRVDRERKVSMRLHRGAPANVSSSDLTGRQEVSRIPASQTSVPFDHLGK

For the compound `COc1ccc(-c2nn([C@@H](C)c3nc4ccccc4c(=O)n3-c3ccccc3)c3ncnc(N)c23)c(F)c1F` [II-A-1a, (S)-2-(1-(4-amino-3-(2,3-difluoro-4-methoxyphenyl)-1H-pyrazolo[3,4-d]pyrimidin-1-yl)ethyl)-3-phenylquinazolin-4(3H)-one], it took 988 nM to reach half-maximal inhibition in data set [1] (IC50). The half-inhibitory concentration (IC50) (in general, the concentration that inhibits the measured activity by half) in data set [2] stood at 112 nM. Besides, the IC50 in data set [3] came out at 108 nM. Further, in data set [4], the “RTV Day 39” value worked out at 1.69 ± 0.27, the “T/C (%) Day 39” value was 23.12%, the “TGI (%)” value was 77.46% and the “Tumor weight” value is given as 0.270 ± 0.043 g.
As to `COc1ccc(-c2nn([C@@H](C)c3nc4cccc(Cl)c4c(=O)n3-c3ccccc3)c3ncnc(N)c23)c(F)c1F` [II-A-7a, (S)-2-(1-(4-amino-3-(2,3-difluoro-4-methoxyphenyl)-1H-pyrazolo[3,4-d]pyrimidin-1-yl)ethyl)-5-chloro-3-phenylquinazolin-4(3H)-one], in data set [5] (IV 1 mg/kg), the AUC(0-t) (usually the area under the concentration-time curve up to a stated or last time point) is 7200 ng·h/mL and the highest level (Cmax) was 1520 ng/mL. In addition, in data set [5] (PO 10 mg/kg), the AUC(0-t) came out at 5780 ng·h/mL; the Cmax (commonly the maximum level reached in the sampled fluid or tissue) was 456 ng/mL; the Tmax – broadly, the time at which the peak concentration occurs – was determined as 6 h. For the same compound, in data set [5] (PO 10 mg/kg vs IV 1 mg/kg of II-A-7a), the bioavailability (in general, dose-corrected exposure relative to a reference, in per cent) came out at 8.02%. Further, the IC50 in data set [1] came to 855 nM. Moreover, in data set [2], the IC50 was determined as 10.2 nM. The IC50 in data set [3] worked out at 45 nM. Also, in data set [4], the “RTV Day 39” value is given as 2.11 ± 0.60, the “T/C (%) Day 39” value stood at 28.86%, the “TGI (%)” value came to 72.70% and the “Tumor weight” value was 0.327 ± 0.048 g.
